Publication PMC3683333, “^11C-LY2428703, a positron emission tomographic radioligand for the metabotropic glutamate receptor 1, is unsuitable for imaging in monkey and human brains” (EJNMMI Research, 2013)

Key:
[1] = Plasma free fraction by ultrafiltration, monkey; format: in vitro ADME, rhesus monkeys
Protocol: The plasma free fraction (fp) of ^11C-LY2428703 was measured by ultrafiltration through membrane filters (Centrifree; Millipore, Billerica, MA, USA) as previously described. Briefly, about 740 kBq of ^11C-LY2428703 (approximately 5 μL) was added to 650 μL of plasma. The mixture was incubated at room temperature for 10 min and then processed as described previously. When radioactivities for the filter components were high, they were allowed to decay until they were within the optimal range of the γ-counter. Determining the free fraction during preblocking was done by drawing blood samples after the preblocking treatments were initiated but immediately before administering the radioligand.
To assess the effects of blocking agents on the fP of ^11C-LY2428703, fP was measured in three monkeys both at baseline and after blockade. The first monkey was blocked with cold LY2428703 and fP was measured 2.5 min after blocker injection (which corresponds to the maximal concentration in plasma of LY2428703), and again at 40 min. The other two monkeys were blocked with DCPQ and elacridar, respectively.

[2] = In vitro stability in nonhuman primate blood and plasma; format: in vitro ADME; details: monkey, room temperature
Protocol: Nonradioactive anticoagulated blood was obtained on the day of study from either human or nonhuman primates. Aliquots of ^11C-LY2428703 (about 150 kBq) were added to 0.5 mL of whole blood or 0.5 mL of plasma. Samples were incubated at room temperature for 30 min, after which either 450 μL of the radioactive plasma was added to 720 μL of acetonitrile or 200 μL of the radioactive whole blood was added to 300 μL of water. The tube containing the blood suspension was shaken well to mix and lyse the blood cells. Seven hundred and twenty microliters of acetonitrile was subsequently added and mixed well to precipitate the proteins, followed by 100 μL of water, which was again re-mixed. Radioactivity in the tubes was measured in a gamma counter and then centrifuged at 10,000×g for 1 min. The clear supernatant liquid was injected into the high-performance liquid chromatography (HPLC) column and the precipitate counted to calculate the recovery of radioactivity into the acetonitrile.
The stability of the radioligand in whole blood or plasma was calculated as the ratio of the HPLC % composition of samples divided by the radiochemical purity of the radioligand.

[3] = Arterial plasma analysis after injection, human; format: in vivo
Protocol: Plasma analyses were performed on a reverse-phase chromatography C18 column (Novapak, 4 μm, 100 × 8 mm, Waters Corp. Milford, MA, USA) using Radial-Pak® compression module RCM-100 with a sentry pre-column. Human plasma analyses were performed with a mobile phase of […], at a flow rate of 2.5 mL/min; nonhuman primate plasma samples were analyzed with a mobile phase of MeOH/H2O/Et3N, 72.5:27.5:0.1 by volume, at a flow rate of 1.5 mL/min. To compare the outcome from both systems, elution volume is reported rather than retention time.
Arterial plasma was analyzed as previously described. Briefly, after ^11C-LY2428703 injection into either human or nonhuman primate, the input function was determined by periodically drawing anticoagulated blood samples. Blood aliquots were removed so that the γ-counter could provide information necessary for vascular correction. The remaining blood was then centrifuged, and plasma (450 μL) aliquots were removed and placed in acetonitriles (720 μL/ea) spiked with carrier LY2428703. The samples were mixed well, 100 μL water aliquots were added, and then, the sample was further mixed. The samples were counted in the γ-counter and centrifuged at 10,000×g for 1 min. The clear supernatant liquids were injected onto the radio-HPLC as described above. The precipitates were then counted for radioactivity to allow the calculation of the efficiency of recovery of radioactivity in the acetonitrile. Human plasma samples were separated with a mobile phase of higher polarity ([…]) to ensure that the parent radiochromatographic peak comprised a single radiochemical species.
PET images were acquired using the GE Advance scanner (GE Healthcare, Milwaukee, WI, USA) for 120 min. An 8-min ^68Ge transmission scan was obtained before the injection of the radiotracer for attenuation correction. The mean injected activity was 328 ± 12 MBq. The specific activity at the time of injection was 87.2 ± 34.7 GBq/μmol, which corresponded to 5.5 ± 2.3 nmol (0.082 ± 0.037 nmol/kg) of carrier. Blood samples (1 mL each) were drawn from the radial artery at 15-s intervals until 150 s, followed by 3-mL samples at 3, 4, 6, 8, 10, 15, 20, 30, 40, and 50 min, and 4.5 mL at 60, 75, 90, and 120 min. The unchanged parent fraction in plasma and fP of ^11C-LY2428703 were determined as described above.

[4] = Whole-body biodistribution and radiation dosimetry, monkey; format: in vivo, rhesus monkeys; details: for radiation-absorbed dose: monkey data extrapolated to 70-kg adult male
Protocol: Two male rhesus monkeys (14.1 and 19.9 kg) were scanned after intravenous injection of 318 and 274 MBq of ^11C-LY2428703, respectively. Dynamic two-dimensional scans were acquired on the GE Advance tomograph (GE Medical Systems, Milwaukee, WI, USA) in five bed positions of the body (head to upper thigh), with frames of increasing duration (15 s to 4 min) for a total scan time of up to 115 min.
Images were analyzed by placing regions of interest on the dynamic tomographic images. Regions were drawn in identifiable source organs: brain, heart, lungs, liver, spleen, gallbladder, kidneys, lumbar vertebrae, small intestine, testes, and urinary bladder. […] The mean recovery of activity in the body above the thigh measured by PET was 85.6% of the injected activity measured by a dose calibrator. This recovered total activity in the body was used as the new injected activity for each scan.
At each time point, the activity measured within the organs was converted into the fraction of the injected dose by dividing the organ activities by the recovered injected activity. The area under the curve (AUC) of each organ was calculated by the trapezoidal method until acquisition ended. The area under the curve after the acquisition of the last image (i.e., to infinity) was calculated by assuming that the decline in radioactivity after this time point occurred only via physical decay, without any further biological clearance.
Residence times from the monkeys were converted into corresponding human values by multiplying with a factor to scale organ and body weights: (bm/om) × (oh/bh), where bm and bh are the body weights of monkey and human, respectively, and om and oh are the organ weights of monkey and human, respectively.
Radiation absorbed doses were calculated from the residence times for each source organ. We used the model for a 70-kg adult male in the OLINDA/EXM computer program.

fp (plasma free fraction) ([1]; average of three baseline monkeys): 0.884%
fp ([1]; monkey blocked with nonradioactive LY2428703: baseline): 1.25 ± 0.12%
fp ([1]; monkey, 2.5 min after blockade with nonradioactive LY2428703): 1.12 ± 0.18%
fp ([1]; monkey, 40 min after blockade with nonradioactive LY2428703): 0.89 ± 0.14%
fp ([1]; monkey, DCPQ blocking experiment: baseline): 1.074%
fp ([1]; monkey, after DCPQ blockade): 1.100%
fp ([1]; monkey, after elacridar blockade): 0.912%
fp ([1]; monkey, elacridar blocking experiment: baseline): 0.456%
stability in whole blood and plasma [2]: completely stable
peak plasma concentration [3]: 33 ± 5 SUV
time of peak plasma concentration [3]: 1.5 ± 0 min
radiometabolites in plasma ([3]; at 2 h): approximately 1%
parent radioligand as share of total blood radioactivity ([3]; entire 2-h imaging period): ~99%
radiation-absorbed dose ([4]; heart wall): 8.2 μSv/MBq
radiation-absorbed dose ([4]; liver): 9.9 μSv/MBq
effective dose ([4]; monkey data extrapolated to humans): 5.8 μSv/MBq
peak uptake in liver ([4]; monkey, average peak): approximately 12 SUV
time of peak uptake in liver ([4]; monkey, post-injection): about 5 min
radiation-absorbed dose ([4]; other organs): less than 7 μSv/MBq
radiation-absorbed dose ([4]; testes): 13.7 μSv/MBq
SMILES: Cc1c(-c2ccc(O[11CH3])cc2)nsc1NC(=O)[C@@H]1C[C@H]1C [^11C-LY2428703]
